According to patent publication US6864051B1, “Plant gene constructs and their use” (priority 1997, dated 2005):

Assays:
[1] = test system: tobacco plants overexpressing ATH1; assay: Foliar application (spraying) of GA3 to tobacco plants overexpressing ATH1; assay type: in vivo, Nicotiana tabacum; conditions: 35S::ATH1 tobacco; for late-flowering phenotype of ATH1 overexpressing tobacco after GA spraying: foliar GA3 spraying, data not shown
Procedure: Tobacco plants (Nicotiana tabacum L. cv. Samsun NN) were transformed using the leaf disk procedure (Horsch et al., 1985). Transgenic plants were selected on MS-medium (Murashige and Skoog, 1962) containing […] kanamycin and 2% sucrose. After transfer to soil plants were grown in a greenhouse at 22° C. under a light regime of 16 hours daylight when necessary supplemented with artificial light. The effects of gibberellin (GA) were tested by foliar applications (spraying) of 100 mM GA3 in a solution containing 100 ml/l of Triton X-100. Control plants were sprayed with a solution containing only 100 ml/l of Triton X-100. Spraying began 60 days after sowing when the wild-type plants were approximately 5 cm tall and the 35S CaMV::ATH1 plants approximately 2.5 cm tall, and continued at 3- to 4-day intervals. Plant height was measured every 3 to 4 days and this will be continued until the onset of flowering, as determined by the appearance of flower primordia.

[2] = test system: 35S::ATH1 Arabidopsis; assay: Rescue of 35S::ATH1 Arabidopsis seeds/seedlings on growth medium containing GA3; assay type: in vivo, Arabidopsis thaliana; conditions: growth medium containing 10^-5 M GA3 for three days
From the text: In order to gain more insight into the role of ATH1 in plant development, the full length ATH1 cDNA was fused to the constitutive 35S promoter of cauliflower mosaic virus and the 35S::ATH1 chimeric gene was transformed into Arabidopsis via the vacuum infiltration method. Six independent primary transformants could be obtained and all transgenic lines were selfed. From each independent transgenic line 40 individual seeds were germinated and scored for altered phenotypes compared to wild type plants. […] Once rescued and transferred to soil plants developed normally, except for a late flowering phenotype. Under short day conditions transgenic plants form much more rosette leaves (vegetative leaves) than wild type plants (about 40 rosette leaves and 100 days after germination, and plants are still not flowering, compared to about 30 rosette leaves in wild-type plants until flowering). Under LD conditions in most of these plants a partial generative to vegetative reversion occurs, shown by the formation of aerial rosettes (vegetative leaves) on the inflorescence stem. Plants (C24 ecotype) containing an extra copy of the ATH1 cDNA under control of the Hsp18.2 heat shock promoter (HspHlB plants) also show a late-flowering phenotype. […]

For `C=C1C[C@]23C[C@@]1(O)CC[C@H]2[C@@]12C=C[C@H](O)[C@@](C)(C(=O)O1)[C@H]2[C@@H]3C(=O)O` [GA3, gibberellin A3], the “late-flowering phenotype of ATH1 overexpressing tobacco after GA spraying” value [1] was “holds also true”, the “late-flowering phenotype of ATH1 overexpressing tobacco after GA spraying” value ([1]; listed as GA) was “rescue” and the “stem length (plant height) of ATH1 overexpressing tobacco after GA3” value ([1]; spraying of 100 mM GA3 at three to four day intervals) was “complete restoration of the wild-type stem length”. For the same compound, the “poor germination and arrest in seedling stage of 35S::ATH1 Arabidopsis” value [2] was “could be overcome”.
